According to patent US20220275458A1, “PREDICTION OF CANCER THERAPY EFFICACY” (UNIVERSITY OF MASSACHUSETTS, priority 2019, published 2022):

What was measured:
[1] = tested on: TLS cancer vs non-TLS cancer or non-cancer cells; assay: Combined assay: EdU replication and ssDNA gaps (TLS specificity); type: cell-based, human; settings: U2OS cell lines; HU plus ATR inhibitor
Protocol: A combination assay was performed in a high-throughput manner using 384-well plates. This assay served as a rapid and efficient method to determine the anti-TLS activity of the lead compounds and novel analogues. […] Specifically, the assay identifies compounds that cause TLS cells, but not non-TLS cells, to lose replication (green) and gain ssDNA gaps (red). […] Colors can be identified using a high content and high throughput imaging camera. […] Moreover, red and green fluorescent readouts are readable/quantifiable from full well images at 20×. Several positive and negative controls that may be employed in parallel with the screen to induce gaps or suppress gaps. In particular, under these assay conditions replication with gaps are induced when ATR is inhibited.
A combined assay can be performed to first analyze the ability of these TLSi's to inhibit global replication with concomitant induction of ssDNA in TLS cancer vs non-TLS cancer or non-cancer cells. Second, a colony formation assays in each of these models to determine whether the TLSi's selectively reduce colony formation in TLS cancer cells.
Immunofluorescence was performed as described previously^27. Cells were grown on coverslips in 10 μM BrdU for 48 h before the treatment with drugs. Cells were then treated with the aforementioned drugs for 2 h. […]

BR5-R1 cells = assay: Cell survival assays for T2, BR5 and BR5-R1 cells; type: cell-based, mouse; settings: BR5-R1 PARPi-resistant cells; VE-821 1 μM co-incubated with olaparib
Protocol: To determine whether gap suppression mechanisms occur in models of de novo PARPi resistance, cell lines were analyzed that were initially sensitive to PARPi and then had gained PARPi resistance while propagated in tissue culture^41. BRCA1-deficient mouse ovarian tumor cell line, BR5, was utilized and its derived PARPi-resistant cell line, BR5-R1^41. PARPi sensitivity of BR5 was confirmed as compared to BR5-R1 and BRCA1 proficient T2 cells. See, FIG. 41A. […] See, FIG. 41B. […] See, FIGS. 41B and 41C. Thus, BR5-R1 cells resemble FANCJ deficient cells, in that they both lack PARPi induced-sensitivity, lengthening, or gaps, but remain sensitive to cisplatin. See, FIG. 42A. […] See, FIGS. 41A, 41C and 42A.
(§1) Cells were seeded onto 96-well plates (500 cells per well, performed in triplicate for each experiment group) and incubated overnight. The next day, cells were treated with increasing doses of drugs indicated in corresponding figures and maintained in complete media for 5 to 7 days. Percentage survival was measured photometrically using a CellTiter-Glo 2.0 viability assay (Promega) in a microplate reader (Beckman Coulter DTX 880 Multimode Detector).

[2] = tested on: pro-TLS U2OS and HCT15 cells; assay: Colony formation assay with ATRi or Wee1i alone or with TLSi; type: cell-based, human; settings: for clonogenic survival: pro-TLS U2OS cells compared to non-TLS dependent cells; for response in colony formation assay: pro-TLS cancer cell line HCT15
Protocol: Currently, there is a major clinical effort to combat cancer by induction of replication stress through inhibition of ATR or the mitotic checkpoint kinase, Wee1 (Bukhari et al., 2019). Given that these drugs induce replication gaps, it was considered that if gaps were the sensitizing lesion, TLS could also interfere with their effectiveness. […] See, FIG. 55A, 5B and FIG. 56A-D; (Bukhari et al., 2019).
For colony formation assays either 500 or 1000 cells per well were seeded into 6 well plates and were treated continuously with or without TLSi. Once the colonies had developed, the cells were fixed with 90% methanol and then stained with 0.05% (w/v) crystal violet solution. Plates were then imaged using ChemiDocTM Touch Imaging System (BioRad).

RPE1 cells [3] = assay: DNA fiber assay following olaparib treatment; type: cell-based, human; settings: 10 μM olaparib, 2 h
Protocol: Cells were labeled by sequential incorporation of two different nucleotide analogs, IdU and CldU, into nascent DNA strands for the indicated time and conditions. After nucleotide analogs were incorporated in vivo, the cells were collected, washed, spotted, and lysed on positively charged microscope slides by […] spreading buffer for 8 min at room temperature. For experiments with the ssDNA-specific endonuclease S1, after the CldU pulse, cells were treated with CSK100 buffer for 10 min at room temperature, then incubated with S1 nuclease buffer with or without 20 U/mL S1 nuclease (Invitrogen, 18001-016) for 30 min at 37 C. The cells were then scraped in PBS +0.1% BSA and centrifuged at 7,000 rpm for 5 min at 4 C. Cell pellets were resuspended at […] and lysed with lysis solution on slides. Individual DNA fibers were released and spread by tilting the slides at 45 degrees. After air-drying, fibers were fixed by 3:1 methanol/acetic acid at room temperature for 3 min. After air-drying again, fibers were rehydrated in PBS, denatured with 2.5 M HCl for 30 min, washed with PBS, and blocked with blocking buffer for 1 hr. […] Finally, visualization of green and/or red signals by fluorescence microscopy (Axioplan 2 imaging, Zeiss) provided information about the active replication directionality at the single-molecule level.

RPE1 cells [4] = assay: Cell survival assays in Control, FANCJ K/O and BRCA1 K/O RPE1 cells; type: cell-based, human; settings: for sensitivity at therapeutic range: 0.5 uM Olaparib
Protocol: as §1

[5] = tested on: BRCA-RAD51 pathway proficient or deficient cell lines; assay: PARPi response of model cell systems (Table 4 summary); type: cell-based
Protocol: In the above tested model systems, HR or FP sometimes correlate with PARPi resistance whereas ssDNA gap suppression always correlates. Moreover, defects in HR or FP sometimes correlate with PARPi sensitivity whereas gaps always correlate.
as §1

PEO1 and C4-2 cells = assay: Cell survival assay, cisplatin, PEO1 and C4-2; type: cell-based, human
Protocol: Cells were plated at 500 cells per well in the center wells of a 96 well plate in 200 ul volume and allowed to adhere for 36 h. Subsequently, drugs were added in a 100 ul volume and the cells were incubated for 10 days. CellTiter-Glo 2.0 (Promega) was used to quantify cell number by ATP. To prevent evaporation, all blank wells in the 96 well plate were filled with media, and each plate was placed in a humid chamber with PBS.

U2OS cells = assay: Electron microscopy of reversed replication forks; type: cell-based, human; settings: 4 mM HU
Protocol: To investigate the effect of TLS on the fine replication fork architecture, psoralen cross-linking coupled to reversed fork intermediates were detected with electron microscopy (EM) with or without elevated TLS. Following 4 mM HU treatment, a substantial fraction of reversed replication forks were found in FANCJ^WT and empty vector U2OS cells (˜26% and 23%, respectively). […] See, FIG. 6D.
For the EM analysis of replication intermediates, 5-10×10^6 U2OS cells treated with or without 4 mM HU were collected and genomic DNA was cross-linked by two rounds of incubation in 10 μg ml-1 4,5,8-trimethylpsoralen (Sigma-Aldrich) and 3 min of irradiation with 366 nm UV light on a precooled metal block10,26. Cells were lysed and genomic DNA was isolated from the nuclei by proteinase K (Roche) digestion and phenol-chloroform extraction. DNA was purified by isopropanol precipitation, digested with PvuII HF in the proper buffer for 3-5 h at 37° C. and replication intermediates were enriched on a benzoylated naphthoylated DEAE-cellulose (Sigma-Aldrich) column. EM samples were prepared by spreading the DNA on carbon-coated grids in the presence of benzyl-dimethyl-alkylammonium chloride and visualized by platinum rotary shadowing. Images were acquired on a transmission electron microscope (JEOL 1200 EX) with side-mounted camera (AMTXR41 supported by AMT software v601) and analyzed with ImageJ (National Institutes of Health). EM analysis allows distinguishing duplex DNA—which is expected to appear as a 10 nm thick fiber, after the platinum/carbon coating step necessary for EM visualization—from ssDNA, which has a reduced thickness of 5-7 nm. The criteria used for the unequivocal assignment of reversed forks include the presence of a rhomboid structure at the junction itself in order to provide a clear indication that the junction is opened up and that the four-way junction structure is not simply the result of the occasional crossing of two DNA molecules^25. […]

Structure (SMILES): CS(=O)(=O)c1ccc(-c2cnc(N)c(C(=O)Nc3ccccc3)n2)cc1 [VE-821]
- replication and ssDNA gaps during stress [1]: promoted replication during stress, but with significant ssDNA gap induction
- effect on PARPi sensitivity (BR5-R1 cells): re-established PARPi sensitivity
- clonogenic survival [2]: greater clonogenic survival
- response in colony formation assay [2]: resistance

Structure (SMILES): O=C(c1cc(Cc2n[nH]c(=O)c3ccccc23)ccc1F)N1CCN(C(=O)C2CC2)CC1 [olaparib]
- replication tract length (RPE1 cells [3]): lengthens replication tracts
- sensitivity at therapeutic range (RPE1 cells [4]; BRCA1 K/O RPE cells): sensitive
- sensitivity at therapeutic range (RPE1 cells [4]; control and FANCJ K/O cells): not sensitive
- sensitivity in cell survival assay (RPE1 cells [4]; BRCA1 K/O RPE1 cells, olaparib): sensitive
- sensitivity in cell survival assay (RPE1 cells [4]; FANCJ K/O RPE1 cells, olaparib): not sensitize
- PARPi response ([5]; BRCA1/2 deficient): sensitive
- PARPi response ([5]; BRCA1/2 proficient): resistant
- PARPi response ([5]; BRCA1 and 53BP1 deficient): resistant
- PARPi response ([5]; BRCA2 S3291A mutant): resistant
- PARPi response ([5]; BRCA2 and CHD4 deficient): resistant
- PARPi response ([5]; FANCJ deficient): resistant
- PARPi response ([5]; RAD51 T131P mutant): sensitive
- PARPi response ([5]; RAD51 T131P mutant and RADX deficient): sensitive

Structure (SMILES): N.N.[Cl][Pt][Cl] [cisplatin]
- sensitivity in cell survival assay (RPE1 cells [4]; BRCA1 K/O RPE1 cells, cisplatin): sensitive
- sensitivity in cell survival assay (RPE1 cells [4]; FANCJ K/O RPE1 cells, cisplatin): sensitive
- cisplatin response (PEO1 and C4-2 cells; C4-2 cells, BRCA2 proficient PEO1 reversion line): resistant
- cisplatin response (PEO1 and C4-2 cells; PEO1 cells, truncated BRCA2): hypersensitive

Structure (SMILES): CC[C@@]1(O)C(=O)OCc2c1cc1n(c2=O)Cc2cc3ccccc3nc2-1 [CPT, camptothecin]
- sensitivity in cell survival assay (RPE1 cells [4]; FANCJ K/O RPE1 cells, CPT): sensitive

Structure (SMILES): C=CCn1c(=O)c2cnc(Nc3ccc(N4CCN(C)CC4)cc3)nc2n1-c1cccc(C(C)(C)O)n1 [MK1775]
- clonogenic survival [2]: greater clonogenic survival
- response in colony formation assay [2]: resistance

Structure (SMILES): NC(=O)NO [HU, hydroxyurea]
- frequency of fork reversal events (U2OS cells; FANCJ S990A U2OS cells): ~11%
- fraction of reversed replication forks (U2OS cells; FANCJ WT U2OS cells): ~26%
- fraction of reversed replication forks (U2OS cells; empty vector U2OS cells): 23%
